From PMC3433420 (PLoS ONE, 2012)
Residues, ends and D or L forms follow the SMILES beside them.

Assays:
[1] = target: T1, PIK3R3-NC tandem SH2 domains (Homo sapiens, UniProt Q92569); experiment: FP saturation binding assay; details: high-confidence ErbB interactions
T1 construct: the tandem protein was included in our analysis with all internal amino acids linking the domains; 6X His; thioredoxin; made in house; host or cells: E. coli BL21(DE3)pLysS
Procedure, shortened: (§1)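 KD values come from least-squares fits of fluorescence polarization (ex 530, em 555 nm), corrected for thioredoxin nonspecific binding and plate baseline, with outliers pruned. Fixed 10 nM labeled peptide met a 0.002–10 µM protein series for 20 min at room temperature in HEPES/KCl/Tween/DTT buffer, pH 7.8.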

PIK3R2-N SH2 domain = PIK3R2-N SH2 domain (Homo sapiens, UniProt O00459); experiment: FP saturation binding assay
Chain of PIK3R2-N SH2 domain (O00459 330-425 limits assumed): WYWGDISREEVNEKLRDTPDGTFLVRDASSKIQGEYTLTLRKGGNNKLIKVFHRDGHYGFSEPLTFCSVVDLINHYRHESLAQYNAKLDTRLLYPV

[2] = target: PIK3R2-NC tandem SH2 domains (Homo sapiens, UniProt O00459); experiment: FP saturation binding assay
Chain of PIK3R2-NC tandem SH2 domains (O00459 330-716 limits assumed): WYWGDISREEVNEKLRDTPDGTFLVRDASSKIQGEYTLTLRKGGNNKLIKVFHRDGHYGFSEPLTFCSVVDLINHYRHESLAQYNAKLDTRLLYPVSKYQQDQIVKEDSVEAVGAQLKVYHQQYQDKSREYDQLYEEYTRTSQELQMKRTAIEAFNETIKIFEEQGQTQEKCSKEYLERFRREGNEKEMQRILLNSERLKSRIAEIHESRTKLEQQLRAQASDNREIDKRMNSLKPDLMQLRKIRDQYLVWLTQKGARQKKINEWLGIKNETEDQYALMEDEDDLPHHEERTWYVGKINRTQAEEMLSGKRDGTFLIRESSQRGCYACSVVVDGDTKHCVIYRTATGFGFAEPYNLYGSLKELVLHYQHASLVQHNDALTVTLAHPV

RASA1-N SH2 domain = target: T2, RASA1-N SH2 domain (Homo sapiens, UniProt P20936); experiment: FP saturation binding assay
T2 sequence (P20936 181-272 limits assumed): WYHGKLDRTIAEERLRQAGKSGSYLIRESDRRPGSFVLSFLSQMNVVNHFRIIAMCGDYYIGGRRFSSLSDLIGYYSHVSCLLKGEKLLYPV

LCK SH2 domain = target: T3, LCK SH2 domain (Homo sapiens, UniProt P06239); experiment: FP saturation binding assay; details: Protein LCK; FP saturation binding, high-confidence ErbB interactions; mean over replicate hits
T3 construct: 93 SH2 and 2 PTB domain-containing constructs; 6X His; thioredoxin; made in house; host or cells: E. coli BL21(DE3)pLysS
T3 sequence (P06239 127-224 limits assumed): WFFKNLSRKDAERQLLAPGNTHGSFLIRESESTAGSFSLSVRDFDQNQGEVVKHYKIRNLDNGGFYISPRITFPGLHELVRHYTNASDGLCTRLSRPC
Procedure, shortened: as §1

YES1 SH2 domain = target: T4, YES1 SH2 domain (Homo sapiens, UniProt P07947); experiment: FP saturation binding assay; details: high-confidence ErbB interactions
T4 construct: 6X His; thioredoxin; made in house; host or cells: BL21(DE3)pLysS E. coli
T4 sequence (P07947 158-255 limits assumed): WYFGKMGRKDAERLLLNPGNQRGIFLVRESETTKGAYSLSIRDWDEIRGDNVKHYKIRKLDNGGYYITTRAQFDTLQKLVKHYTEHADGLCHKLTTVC
Procedure, shortened: as §1

[3] = target: T5, RASA1-NC tandem SH2 domains (Homo sapiens, UniProt P20936); experiment: FP saturation binding assay; details: Protein RASA1-NC; FP saturation binding, high-confidence ErbB interactions; mean over replicate hits
T5 construct: the tandem protein was included in our analysis with all internal amino acids linking the domains; 6X His; thioredoxin; made in house; host or cells: E. coli BL21(DE3)pLysS
T5 sequence (P20936 181-441 limits assumed): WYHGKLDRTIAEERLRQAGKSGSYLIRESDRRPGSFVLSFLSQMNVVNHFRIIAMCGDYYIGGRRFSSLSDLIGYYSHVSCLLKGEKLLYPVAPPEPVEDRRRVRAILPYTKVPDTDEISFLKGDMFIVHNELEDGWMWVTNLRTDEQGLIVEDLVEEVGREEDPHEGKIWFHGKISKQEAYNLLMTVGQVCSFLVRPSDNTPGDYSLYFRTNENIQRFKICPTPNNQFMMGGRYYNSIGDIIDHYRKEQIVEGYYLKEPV
Procedure, shortened: as §1

SH2D1B SH2 domain = target: T6, SH2D1B SH2 domain (Homo sapiens, UniProt O14796); experiment: FP saturation binding assay
T6 sequence (O14796 5-101 limits assumed): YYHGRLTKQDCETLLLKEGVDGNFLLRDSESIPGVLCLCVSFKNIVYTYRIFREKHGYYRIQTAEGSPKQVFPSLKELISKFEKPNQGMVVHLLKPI

PTPN11-N SH2 domain = target: T7, PTPN11-N SH2 domain (Homo sapiens, UniProt Q06124); experiment: FP saturation binding assay
T7 sequence (Q06124 6-102 limits assumed): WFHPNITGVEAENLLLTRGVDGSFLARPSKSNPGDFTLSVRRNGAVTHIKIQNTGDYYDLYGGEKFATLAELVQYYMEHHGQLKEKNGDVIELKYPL

PTK6 SH2 domain = target: T8, PTK6 SH2 domain (Homo sapiens, UniProt Q13882); experiment: FP saturation binding assay; details: high-confidence ErbB interactions
T8 construct: from the PTK6 SH2 domain; 6X His; thioredoxin; made in house; host or cells: E. coli BL21(DE3)pLysS
T8 sequence (Q13882 78-170 limits assumed): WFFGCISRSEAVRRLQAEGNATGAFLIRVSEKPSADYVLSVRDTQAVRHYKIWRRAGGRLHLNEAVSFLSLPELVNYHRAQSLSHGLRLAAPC
Procedure, shortened: as §1

PIK3R3-N SH2 domain = target: T9, PIK3R3-N SH2 domain (Homo sapiens, UniProt Q92569); experiment: FP saturation binding assay; details: high-confidence ErbB interactions
T9 construct: 6X His; thioredoxin; made in house; host or cells: E. coli BL21(DE3)pLysS
Procedure, shortened: as §1

[4] = target: T10, PTPN11-NC tandem SH2 domains (Homo sapiens, UniProt Q06124); experiment: FP saturation binding assay
T10 sequence (Q06124 6-216 limits assumed): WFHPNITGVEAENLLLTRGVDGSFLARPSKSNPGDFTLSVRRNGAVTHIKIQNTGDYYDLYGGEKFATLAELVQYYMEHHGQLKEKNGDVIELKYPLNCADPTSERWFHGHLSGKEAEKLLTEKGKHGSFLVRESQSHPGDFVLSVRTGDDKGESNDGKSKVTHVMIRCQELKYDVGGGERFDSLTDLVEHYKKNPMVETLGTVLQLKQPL

PIK3R1-C SH2 domain = target: T11, PIK3R1-C SH2 domain (Homo sapiens, UniProt P27986); experiment: FP saturation binding assay; details: protein PIK3R1-C, high-confidence ErbB interactions, mean of replicate hits
T11 construct: 6X His; thioredoxin; made in house; host or cells: E. coli BL21(DE3)pLysS
T11 sequence (P27986 624-718 limits assumed): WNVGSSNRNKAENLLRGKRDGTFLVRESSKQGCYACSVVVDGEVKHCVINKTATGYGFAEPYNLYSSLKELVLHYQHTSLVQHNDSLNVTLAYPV
Procedure, shortened: as §1

GRB7 SH2 domain = GRB7 SH2 domain (Homo sapiens, UniProt Q14451); experiment: FP saturation binding assay; details: Mean KD (μM), protein GRB7; FP, high-confidence ErbB interactions; mean of replicate hits
Chain of GRB7 SH2 domain (Q14451 431-527 limits assumed): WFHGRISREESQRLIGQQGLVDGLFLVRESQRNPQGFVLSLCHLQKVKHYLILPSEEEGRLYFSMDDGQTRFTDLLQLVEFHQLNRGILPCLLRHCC

PIK3R1-N SH2 domain = target: T12, PIK3R1-N SH2 domain (Homo sapiens, UniProt P27986); experiment: biochemical; type: binding; details: protein PIK3R1-N; FP, high-confidence ErbB interactions; mean of replicate hits
T12 construct: thioredoxin; made in house; host or cells: E. coli BL21(DE3)pLysS
T12 sequence (P27986 333-428 limits assumed): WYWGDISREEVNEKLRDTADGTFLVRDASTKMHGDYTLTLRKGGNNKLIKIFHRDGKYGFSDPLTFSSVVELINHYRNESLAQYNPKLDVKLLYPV

PIK3R3-C SH2 domain = target: T13, PIK3R3-C SH2 domain (Homo sapiens, UniProt Q92569); experiment: biochemical; type: binding; details: protein PIK3R3-C; FP, high-confidence ErbB interactions; mean of replicate hits
T13 construct: thioredoxin; made in house; host or cells: E. coli BL21(DE3)pLysS

[5] = target: T14, PIK3R1-NC tandem SH2 domains (Homo sapiens, UniProt P27986); experiment: FP saturation binding assay; details: protein PIK3R1-NC; FP, high-confidence ErbB interactions; mean of replicate hits
T14 construct: the tandem protein was included in our analysis with all internal amino acids linking the domains; 6X His; thioredoxin; made in house; host or cells: E. coli BL21(DE3)pLysS
T14 sequence (P27986 333-718 limits assumed): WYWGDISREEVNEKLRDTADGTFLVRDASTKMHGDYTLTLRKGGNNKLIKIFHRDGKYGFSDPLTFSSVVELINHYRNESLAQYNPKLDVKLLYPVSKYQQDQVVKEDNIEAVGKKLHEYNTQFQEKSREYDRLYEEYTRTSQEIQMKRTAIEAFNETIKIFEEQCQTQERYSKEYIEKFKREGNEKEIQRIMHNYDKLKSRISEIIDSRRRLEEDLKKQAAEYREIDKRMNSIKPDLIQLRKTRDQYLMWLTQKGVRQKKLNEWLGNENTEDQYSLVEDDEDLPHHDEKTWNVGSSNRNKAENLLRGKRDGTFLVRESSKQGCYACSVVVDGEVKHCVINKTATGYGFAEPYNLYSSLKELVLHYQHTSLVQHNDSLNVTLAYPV
Procedure, shortened: as §1

PLCG1-C SH2 domain = target: T15, PLCG1-C SH2 domain (Homo sapiens, UniProt P19174); experiment: biochemical; type: binding; details: protein PLCG1-C; high-confidence ErbB interactions; mean of replicate hits
T15 construct: The 6X His-tagged SH2 domain proteins used in the assay, PLCG1-C, SHC4, VAV2; thioredoxin; made in house; host or cells: E. coli BL21(DE3)pLysS
T15 sequence (P19174 668-756 limits assumed): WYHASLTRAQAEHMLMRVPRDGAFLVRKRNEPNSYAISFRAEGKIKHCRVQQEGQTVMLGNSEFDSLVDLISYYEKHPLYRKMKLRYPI

[6] = protein PIK3R3-NC, FP, mean of replicate hits
[7] = protein PIK3R3-N, FP, mean of replicate hits

## CSCC[C@H](NC(=O)[C@@H](NC(=O)[C@H](Cc1ccc(OP(=O)(O)O)cc1)NC(=O)[C@H](C)NC(=O)[C@H](CCC(=O)O)NC(=O)[C@H](CC(=O)O)NC(=O)[C@@H](N)CC(C)C)C(C)C)C(=O)N[C@@H](C)C(=O)N[C@@H](CO)C(=O)N[C@H](C(=O)N[C@@H](CC(=O)O)C(=O)N[C@@H](CC(N)=O)C(=O)N[C@@H](CC(=O)O)C(=O)O)C(C)C [ErbB1 764 13-mer] (HELM PEPTIDE1{L.D.E.A.[O=C([C@H](Cc1ccc(OP(=O)(O)O)cc1)N[*:1])[*:2]].V.M.A.S.V.D.N.D}$$$$V2.0)
[1]; Protein PIK3R3-NC, FP saturation binding, mean over replicate hits
  Kd: 1.91 µM
PIK3R2-N SH2 domain
  Kd: 2.36 µM
[2]
  Kd: 3.07 µM
RASA1-N SH2 domain
  Kd: 9.7 µM

## CSCC[C@H](NC(=O)[C@H](CC(C)C)NC(=O)[C@H](C)NC(=O)[C@H](CCCNC(=N)N)NC(=O)[C@H](Cc1ccc(OP(=O)(O)O)cc1)NC(=O)[C@H](Cc1ccccc1)NC(=O)[C@H](CC(N)=O)NC(=O)[C@H](CO)NC(=O)[C@@H](N)CC(=O)O)C(=O)N[C@@H](CC(=O)O)C(=O)N[C@@H](CCC(=O)O)C(=O)N[C@@H](CCC(=O)O)C(=O)N[C@@H](CC(=O)O)C(=O)O [ErbB1 998 13-mer] (HELM PEPTIDE1{D.S.N.F.[O=C([C@H](Cc1ccc(OP(=O)(O)O)cc1)N[*:1])[*:2]].R.A.L.M.D.E.E.D}$$$$V2.0)
LCK SH2 domain
  Kd: 5.79 µM
YES1 SH2 domain; Protein YES1, FP saturation binding, mean over replicate hits
  Kd: 7.05 µM
[3]
  Kd: 12.6 µM
SH2D1B SH2 domain
  Kd: 3.98 µM
PTPN11-N SH2 domain
  Kd: 13.1 µM
RASA1-N SH2 domain
  Kd: 2.85 µM

## CC[C@H](C)[C@H](NC(=O)[C@H](CC(C)C)NC(=O)[C@H](Cc1ccc(OP(=O)(O)O)cc1)NC(=O)[C@H](CCC(=O)O)NC(=O)[C@H](CC(=O)O)NC(=O)[C@H](C)NC(=O)[C@@H](N)CC(=O)O)C(=O)N1CCC[C@H]1C(=O)N[C@@H](CCC(N)=O)C(=O)N[C@@H](CCC(N)=O)C(=O)NCC(=O)N[C@@H](Cc1ccccc1)C(=O)N[C@@H](CC(=O)O)C(=O)O [ErbB1 1016 13-mer]
[3]
  Kd: 1.1 µM
PTK6 SH2 domain; Protein PTK6, FP saturation binding, mean over replicate hits
  Kd: 3.04 µM
PIK3R3-N SH2 domain; Protein PIK3R3-N, FP saturation binding, mean over replicate hits
  Kd: 3.21 µM
PIK3R2-N SH2 domain
  Kd: 2.48 µM
[2]
  Kd: 2.43 µM
RASA1-N SH2 domain
  Kd: 1.67 µM

## CC[C@H](C)[C@H](NC(=O)[C@@H]1CCCN1C(=O)[C@@H](NC(=O)[C@H](CCCCN)NC(=O)[C@H](C)NC(=O)[C@H](CCC(=O)O)NC(=O)[C@H](CO)NC(=O)[C@H](Cc1ccc(OP(=O)(O)O)cc1)NC(=O)[C@H](CC(C)C)NC(=O)[C@H](CC(C)C)NC(=O)[C@H](CCC(N)=O)NC(=O)[C@@H](N)CCCCN)[C@@H](C)O)C(=O)N[C@@H](CC(=O)O)C(=O)O [ErbB3 868 13-mer] (HELM PEPTIDE1{K.Q.L.L.[O=C([C@H](Cc1ccc(OP(=O)(O)O)cc1)N[*:1])[*:2]].S.E.A.K.T.P.I.D}$$$$V2.0)
SH2D1B SH2 domain
  Kd: 4.96 µM
PTPN11-N SH2 domain
  Kd: 3.61 µM
[4]
  Kd: 3.68 µM

## CSCC[C@H](NC(=O)[C@H](Cc1ccc(O)cc1)NC(=O)[C@H](CCC(=O)O)NC(=O)[C@H](Cc1ccc(OP(=O)(O)O)cc1)NC(=O)[C@H](CC(=O)O)NC(=O)[C@H](CCC(=O)O)NC(=O)[C@H](CC(=O)O)NC(=O)[C@@H]1CCCN1)C(=O)N[C@@H](CC(N)=O)C(=O)N[C@@H](CCCNC(=N)N)C(=O)N[C@@H](CCC(N)=O)C(=O)N[C@@H](CCCNC(=N)N)C(=O)N[C@@H](CC(=O)O)C(=O)O [ErbB3 1260 13-mer] (HELM PEPTIDE1{P.D.E.D.[O=C([C@H](Cc1ccc(OP(=O)(O)O)cc1)N[*:1])[*:2]].E.Y.M.N.R.Q.R.D}$$$$V2.0)
PIK3R1-C SH2 domain
  Kd: 0.47 µM
GRB7 SH2 domain
  Kd: 0.1 µM
PIK3R1-N SH2 domain
  Kd: 0.48 µM

## CSCC[C@H](NC(=O)[C@H](C)NC(=O)[C@H](C)NC(=O)[C@H](Cc1ccc(OP(=O)(O)O)cc1)NC(=O)[C@H](CC(=O)O)NC(=O)CNC(=O)CNC(=O)[C@@H]1CCCN1)C(=O)NCC(=O)N[C@@H](C)C(=O)N[C@@H](CS)C(=O)N1CCC[C@H]1C(=O)N[C@@H](CC(=O)O)C(=O)O [ErbB3 1276 13-mer] (HELM PEPTIDE1{P.G.G.D.[O=C([C@H](Cc1ccc(OP(=O)(O)O)cc1)N[*:1])[*:2]].A.A.M.G.A.C.P.D}$$$$V2.0)
[1]; [6]
  Kd: 3.71 µM
PIK3R3-N SH2 domain; [7]
  Kd: 2.46 µM
PIK3R1-C SH2 domain
  Kd: 2.3 µM
PIK3R1-N SH2 domain
  Kd: 6 µM
PIK3R3-C SH2 domain
  Kd: 9.86 µM

## CC(C)C[C@H](NC(=O)[C@H](Cc1ccc(O)cc1)NC(=O)[C@H](CC(C)C)NC(=O)[C@@H]1CCCN1C(=O)[C@H](CCC(=O)O)NC(=O)[C@H](CC(N)=O)NC(=O)[C@@H](NC(=O)[C@H](Cc1ccc(OP(=O)(O)O)cc1)NC(=O)[C@H](CCC(=O)O)NC(=O)[C@H](CC(=O)O)NC(=O)[C@H](CCC(=O)O)NC(=O)[C@H](C)N)C(C)C)C(=O)N[C@@H](CC(=O)O)C(=O)O [ErbB4 1202 13-mer] (HELM PEPTIDE1{A.E.D.E.[O=C([C@H](Cc1ccc(OP(=O)(O)O)cc1)N[*:1])[*:2]].V.N.E.P.L.Y.L.D}$$$$V2.0)
YES1 SH2 domain; protein YES1, mean of replicate hits
  Kd: 1.61 µM
[5]
  Kd: 1.54 µM
[1]; [6]
  Kd: 2.86 µM
PTK6 SH2 domain; protein PTK6, mean of replicate hits
  Kd: 1.19 µM
PIK3R3-N SH2 domain; [7]
  Kd: 1.86 µM
PLCG1-C SH2 domain
  Kd: 1.55 µM
GRB7 SH2 domain
  Kd: 2.06 µM
[2]
  Kd: 4.97 µM
PIK3R1-N SH2 domain
  Kd: 1.35 µM
RASA1-N SH2 domain
  Kd: 1.46 µM
